Tested on: T1, L-Glutaminase (Streptomyces roseolus strain ZKB1)
T1 construct: gene glsA
Test: ammonia release by Nessler's reagent, […] nm; Lineweaver-Burk
Type: cell-based
Conditions: free enzyme; phosphate buffer pH 7.0; 37 °C; 30 min; 25-100 mM substrate

- Km: 13.9 ± 0.8 mM
Structure (SMILES): NC(=O)CC[C@H](N)C(=O)O [L-glutamine]
